Test: Stability study of oral contraceptive liquid formulation stored at room temperature, amount of contraceptive in solution
Format: physicochemical
Settings: solubilized according to the process (EtOH/PEG 400/water)
Description: A formulation as prepared in Examples 1 or 2, as shown in Table 3 were stored in a container at room temperature and tested periodically for the amount of contraceptive in solution. The reported figure of the contraceptives in solution is in percent of label claim.

| Compound | solubility and stability in water |
| --- | --- |
| C#C[C@]1(O)CC[C@H]2[C@@H]3CCc4cc(O)ccc4[C@H]3CC[C@@]21C [EE, ethinyl estradiol] | greatly increased |
| C#C[C@]1(OC(C)=O)CC[C@H]2[C@@H]3CCC4=CC(=NO)CC[C@@H]4[C@H]3CC[C@@]21CC (mixture of isomers) [NGM, Norgestimate] | greatly increased |

Reference: patent US6506742B2, “Soluble contraceptive liquid formulation” (Ortho-McNeil Pharmaceutical, Inc., priority 1999, dated 2003)
